≈ marks a conversion by molar mass, not a printed value. Where two headings read alike, the source gives them in different places.

Assay type in all cases: cell-based
One test concerns Pseudomonas aeruginosa. In words: MIC vs. aerobic bacteria, microplate broth-dilution (BHI). Conditions: UC95, 20 h, Ps. aeruginosa UC 95, read-out: MIC. The protocol: (§1) The Minimal Inhibitory Concentration (MIC's) of both compounds Vs. aerobic bacteria is determined using a standard microplate broth-dilution method. Brain Heart Infusion (BHI-Difco) broth medium is used, and the plates are incubated at 37° C. for 20 hrs.

The subject of test [1] is Salmonella schottmuelleri. The test is described as above. Conditions: Salmonella, UC126, 20 h, S. schottmuelleri UC 126. The protocol:
as §1

Another test relates to Klebsiella pneumoniae. The test is described as above. The conditions noted are these: Klebsiella pneumoniae, UC58, 20 h, K. pneumoniae UC 58; read-out: MIC. The protocol:
as §1

The test system of a further test is Streptococcus faecalis. Described as above. Conditions: Enterococcus faecalis, UC694, 20 h, St. faecalis UC 694; read-out: MIC. How it is done:
as §1

The next test concerns Diplococcus pneumoniae. Described as above. The conditions noted are these: Streptococcus pneumoniae, UC41, 20 h, D. pneumoniae UC 41; read-out: MIC. How it is done:
as §1

A further test relates to Escherichia coli. The description is as above. Conditions: UC45, 20 h, E. coli UC 45, read-out: MIC. The protocol: as §1
A further test has as its system Proteus vulgaris. The description is as above. Conditions: Proteus vulgaris, UC93, 20 h, P. vulgaris UC 93; read-out: MIC. How it is done:
as §1

The subject of a further test is S. hemolyticus. In words: MIC, test procedure as given supra. The conditions noted are these: UC152, 20 h, S. hemolyticus UC 152; read-out: MIC. The protocol: as §1
The Minimal Inhibitory Concentration (MIC's) of a representative number of the compounds prepared in Examples 2-8 follows. The test procedure is as given supra.

A further test concerns Staphylococcus aureus. Briefly: MIC vs. aerobic bacteria, microplate broth-dilution (BHI). Conditions: Staphylococcus aureus, read-out: MIC.

In the case of `CS[C@H]1O[C@H]([C@H](NC(=O)C2CCCCN2CCO)[C@H](C)Cl)[C@H](O)[C@H](O)[C@H]1O` (stereo partly drawn) [U-44,469], the MIC – broadly, the lowest concentration found to suppress growth – with Pseudomonas aeruginosa is > 1000 µg/mL; in [1], > 1000 µg/mL; with Klebsiella pneumoniae it was > 1000 µg/mL; in the test with Streptococcus faecalis, 1000 µg/mL (≈ 2340 µM); in the test with Diplococcus pneumoniae, 31.3 µg/mL (≈ 73.3 µM); in the test with Escherichia coli, > 1000 µg/mL. In addition, the MIC is > 1000 µg/mL in the test with Proteus vulgaris; 31.3 µg/mL (≈ 73.3 µM) with S. hemolyticus; 250 µg/mL (≈ 586 µM) in the test on Staphylococcus aureus (UC76, 20 h, S. aureus UC 76); 250 µg/mL (≈ 586 µM) in the test with Staphylococcus aureus (UC570, 20 h, S. aureus UC 570); > 1000 µg/mL with Staphylococcus aureus (UC746, 20 h, S. aureus UC 746).

`CCc1ccnc(C(=O)N[C@@H]([C@H]2O[C@H](SC)[C@H](O)[C@@H](O)[C@H]2O)[C@H](C)Cl)c1` [U-45,652]: the MIC was > 1000 µg/mL with Pseudomonas aeruginosa; > 1000 µg/mL in test [1]; 500 µg/mL (≈ 1230 µM) in the test with Klebsiella pneumoniae; > 1000 µg/mL in the test with Streptococcus faecalis; 500 µg/mL (≈ 1230 µM) in the test on Diplococcus pneumoniae; > 1000 µg/mL with Escherichia coli. Moreover, the MIC is > 1000 µg/mL in the test with Proteus vulgaris; 500 µg/mL (≈ 1230 µM) in the test with S. hemolyticus; 1000 µg/mL (≈ 2470 µM) in the test on Staphylococcus aureus (UC76, 20 h, S. aureus UC 76); > 1000 µg/mL in the test with Staphylococcus aureus (UC570, 20 h, S. aureus UC 570); 1000 µg/mL (≈ 2470 µM) in the test on Staphylococcus aureus (UC746, 20 h, S. aureus UC 746).

As for `CCc1ccnc(C(=O)N[C@@H]([C@H]2O[C@H](SC)[C@H](O)[C@@H](O)[C@H]2O)[C@@H](C)O)c1` [U-45,653], the MIC (in the test on Pseudomonas aeruginosa; in test [1]; with Klebsiella pneumoniae; in the test with Streptococcus faecalis; in the test on Diplococcus pneumoniae; in the test on Escherichia coli) was > 1000 µg/mL in each case. For the same molecule, the MIC in the test with Proteus vulgaris is > 1000 µg/mL; in the test on S. hemolyticus, > 1000 µg/mL; with Staphylococcus aureus (UC76, 20 h, S. aureus UC 76), > 1000 µg/mL; with Staphylococcus aureus (UC570, 20 h, S. aureus UC 570), > 1000 µg/mL; with Staphylococcus aureus (UC746, 20 h, S. aureus UC 746), > 1000 µg/mL.

Turning to `CCc1ccc(C(=O)N[C@@H]([C@H]2O[C@H](SC)[C@H](O)[C@@H](O)[C@H]2O)[C@H](C)Cl)nc1` [U-45,656], the MIC was > 1000 µg/mL with Pseudomonas aeruginosa; 1000 µg/mL (≈ 2470 µM) in test [1]; 1000 µg/mL (≈ 2470 µM) with Klebsiella pneumoniae; 1000 µg/mL (≈ 2470 µM) in the test with Streptococcus faecalis; > 1000 µg/mL in the test with Escherichia coli; > 1000 µg/mL in the test with Proteus vulgaris. Further, the MIC came out at 3.9 µg/mL (≈ 9.63 µM) with S. hemolyticus; 62.5 µg/mL (≈ 154 µM) in the test on Staphylococcus aureus (UC76, 20 h, S. aureus UC 76); 62.5 µg/mL (≈ 154 µM) with Staphylococcus aureus (UC570, 20 h, S. aureus UC 570); 62.5 µg/mL (≈ 154 µM) in the test with Staphylococcus aureus (UC746, 20 h, S. aureus UC 746).

For the molecule `CS[C@H]1O[C@H]([C@H](NC(=O)c2cccnc2Cl)[C@H](C)Cl)[C@H](O)[C@H](O)[C@H]1O` [U-45,657], the MIC (in the test on Pseudomonas aeruginosa; in [1]; in the test on Klebsiella pneumoniae; with Streptococcus faecalis; in the test on Escherichia coli; with Proteus vulgaris) was > 1000 µg/mL throughout. Moreover, the MIC turned out to be 7.8 µg/mL (≈ 19 µM) in the test with S. hemolyticus; 125 µg/mL (≈ 304 µM) in the test with Staphylococcus aureus (UC76, 20 h, S. aureus UC 76); 250 µg/mL (≈ 608 µM) in the test on Staphylococcus aureus (UC570, 20 h, S. aureus UC 570); 250 µg/mL (≈ 608 µM) with Staphylococcus aureus (UC746, 20 h, S. aureus UC 746).

Take `CS[C@H]1O[C@H]([C@H](NC(=O)c2ccccn2)[C@H](C)Cl)[C@H](O)[C@H](O)[C@H]1O` [U-45,863]: the MIC with Pseudomonas aeruginosa was > 1000 µg/mL; in test [1], > 1000 µg/mL; in the test with Klebsiella pneumoniae it was > 1000 µg/mL; with Diplococcus pneumoniae it was 62.5 µg/mL (≈ 166 µM); in the test with Escherichia coli, > 1000 µg/mL; in the test with Proteus vulgaris, > 1000 µg/mL. The MIC in the test with S. hemolyticus was determined as 2 µg/mL (≈ 5.31 µM); in the test on Staphylococcus aureus (UC76, 20 h, S. aureus UC 76) it was 62.5 µg/mL (≈ 166 µM).

As to `CS[C@H]1O[C@H]([C@H](NC(=O)c2ccccn2)[C@H](C)O)[C@H](O)[C@H](O)[C@H]1O` [U-46,135], the MIC (with Pseudomonas aeruginosa; in test [1]; in the test with Klebsiella pneumoniae; in the test with Streptococcus faecalis; in the test on Diplococcus pneumoniae; in the test with Escherichia coli) was > 1000 µg/mL throughout. Moreover, the minimum inhibitory concentration (MIC) in the test on Proteus vulgaris is > 1000 µg/mL; in the test with S. hemolyticus, 1000 µg/mL (≈ 2790 µM); in the test on Staphylococcus aureus (UC76, 20 h, S. aureus UC 76), > 1000 µg/mL; in the test with Staphylococcus aureus (UC570, 20 h, S. aureus UC 570), > 1000 µg/mL; in the test with Staphylococcus aureus (UC746, 20 h, S. aureus UC 746), > 1000 µg/mL.
